Results: ChEMBL document CHEMBL5042514, “Picolylamine-functionalized benz[e]indole squaraine dyes: Synthetic approach, characterization and in vitro efficacy as potential anticancer phototherapeutic agents” (Eur J Med Chem, 2022)
Calls of active or inactive are those of the source. The rule behind the calls is not given here.

How the values were obtained:
[1] = Dark toxicity against human NHDF cells assessed as reduction in cell viability incubated for 24 hrs by MTT assay; type: cell-based
[2] = Phototoxicity against human NHDF cells assessed as reduction in cell viability preincubated for 24 hrs followed by 7 mins of LED light irradiation by MTT assay; type: toxicity, cell-based
[3] = Phototoxicity ratio of IC50 for cytotoxicity against human NHDF cells assessed as reduction in cell viability in dark to IC50 for phototoxicity against human NHDF cells upon LED light irradiation; type: toxicity, cell-based; details: read-out: Ratio IC50
[4] = Dark toxicity against human Caco-2 cells assessed as reduction in cell viability incubated for 24 hrs by MTT assay; type: cell-based
[5] = Phototoxicity against human Caco-2 cells assessed as reduction in cell viability preincubated for 24 hrs followed by 7 mins of LED light irradiation by MTT assay; type: toxicity, cell-based; details: Caco-2, light or radiation study
[6] = Phototoxicity ratio of IC50 for cytotoxicity against human Caco-2 cells assessed as reduction in cell viability in dark to IC50 for phototoxicity against human Caco-2 cells upon LED light irradiation; type: toxicity, cell-based
[7] = Selectivity ratio of IC50 for phototoxicity against human NHDF cells upon LED light irradiation to IC50 for phototoxicity against human Caco-2 cells upon LED light irradiation; type: toxicity, cell-based; details: NHDF cells versus Caco-2 cells, read-out: Ratio IC50
[8] = Dark toxicity against human HeLa cells assessed as reduction in cell viability incubated for 24 hrs by MTT assay; type: cell-based
[9] = Phototoxicity against human HeLa cells assessed as reduction in cell viability preincubated for 24 hrs followed by 7 mins of LED light irradiation by MTT assay; type: toxicity, cell-based; details: light or radiation study
[10] = Phototoxicity ratio of IC50 for cytotoxicity against human HeLa cells assessed as reduction in cell viability in dark to IC50 for phototoxicity against human HeLa cells upon LED light irradiation; type: toxicity, cell-based
[11] = Selectivity ratio of IC50 for phototoxicity against human NHDF cells upon LED light irradiation to IC50 for phototoxicity against human HeLa cells upon LED light irradiation; type: toxicity, cell-based; details: NHDF cells versus HeLa cells, read-out: Ratio IC50
[12] = Dark toxicity against human MCF7 cells assessed as reduction in cell viability incubated for 24 hrs by MTT assay; type: cell-based
[13] = Phototoxicity against human MCF7 cells assessed as reduction in cell viability preincubated for 24 hrs followed by 7 mins of LED light irradiation by MTT assay; type: toxicity, cell-based; details: MCF7, light or radiation study
[14] = Phototoxicity ratio of IC50 for cytotoxicity against human MCF7 cells assessed as reduction in cell viability in dark to IC50 for phototoxicity against human MCF7 cells upon LED light irradiation; type: toxicity, cell-based
[15] = Selectivity ratio of IC50 for phototoxicity against human NHDF cells upon LED light irradiation to IC50 for phototoxicity against human MCF7 cells upon LED light irradiation; type: toxicity, cell-based; details: NHDF cells versus MCF7 cells, read-out: Ratio IC50
[16] = Dark toxicity against human PC-3 cells assessed as reduction in cell viability incubated for 24 hrs by MTT assay; type: cell-based
[17] = Phototoxicity against human PC-3 cells assessed as reduction in cell viability preincubated for 24 hrs followed by 7 mins of LED light irradiation by MTT assay; type: toxicity, cell-based; details: PC-3, light or radiation study
[18] = Phototoxicity ratio of IC50 for cytotoxicity against human PC-3 cells assessed as reduction in cell viability in dark to IC50 for phototoxicity against human PC-3 cells upon LED light irradiation; type: toxicity, cell-based
[19] = Selectivity ratio of IC50 for phototoxicity against human NHDF cells upon LED light irradiation to IC50 for phototoxicity against human PC-3 cells upon LED light irradiation; type: toxicity, cell-based; details: NHDF cells versus PC-3 cells, read-out: Ratio IC50
HeLa [20] = assay: Induction of morphological change in human HeLa cells assessed as rounded cell morphology at 0.25 uM preincubated for 24 hrs followed by 7 mins of LED light irradiation and measured upto 48 hrs by microscopic analysis; type: functional, cell-based; details: time min <=4327
HeLa [21] = assay: Induction of morphological change in human HeLa cells assessed as cell shrinkage at 0.25 uM preincubated for 24 hrs followed by 7 mins of LED light irradiation and measured upto 48 hrs by microscopic analysis; type: functional, cell-based; details: time min <=4327
HeLa [22] = assay: Induction of morphological change in human HeLa cells assessed as plasma membrane rupture at 1 uM preincubated for 24 hrs followed by 7 mins of LED light irradiation and measured upto 48 hrs by microscopic analysis; type: functional; details: time min <=4327
HeLa [23] = assay: Induction of morphological change in human HeLa cells assessed as intracellular space dilation at 1 uM preincubated for 24 hrs followed by 7 mins of LED light irradiation and measured upto 48 hrs by microscopic analysis; type: functional, cell-based; details: time min <=4327
[24] = Genotoxicity in human HeLa cells assessed as genetic damage index at 1 uM measured after 24 hrs in absence of light by alkali comet assay; type: toxicity, cell-based
[25] = Drug localization in mitochondria of human HeLa cells at 1 uM incubated for 24 hrs by Rhodamine 123 based confocal laser scanning microscopy analysis; type: ADME
HeLa [26] = assay: Induction of cell cycle arrest in human HeLa cells assessed as accumulation in G0/G1 phase at 1 uM by PI staining based flow cytometry analysis (reference value: 67.03 %); type: functional
HeLa [27] = assay: Induction of cell cycle arrest in human HeLa cells assessed as accumulation in S phase at 1 uM by PI staining based flow cytometry analysis (reference value: 32.14 %); type: functional
HeLa [28] = assay: Induction of cell cycle arrest in human HeLa cells assessed as accumulation in G2/M phase at 1 uM by PI staining based flow cytometry analysis (reference value: 4.79 %); type: functional
HeLa [29] = assay: Induction of cell cycle arrest in human HeLa cells assessed as accumulation in G0/G1 phase at 0.24 uM by PI staining based flow cytometry analysis (reference value: 67.03 %); type: functional
HeLa [30] = assay: Induction of cell cycle arrest in human HeLa cells assessed as accumulation in S phase at 0.24 uM by PI staining based flow cytometry analysis (reference value: 32.14 %); type: functional
HeLa [31] = assay: Induction of cell cycle arrest in human HeLa cells assessed as accumulation in G2/M phase at 0.24 uM by PI staining based flow cytometry analysis (reference value: 4.79 %); type: functional
HeLa [32] = assay: Induction of cell cycle arrest in human HeLa cells assessed as accumulation in G0/G1 phase at 0.24 uM with red light radiation for 7 mins by PI staining based flow cytometry analysis (reference value: 63.18 %); type: functional
HeLa [33] = assay: Induction of cell cycle arrest in human HeLa cells assessed as accumulation in S phase at 0.24 uM with red light radiation for 7 mins by PI staining based flow cytometry analysis (reference value: 32.09 %); type: functional
HeLa [34] = assay: Induction of cell cycle arrest in human HeLa cells assessed as accumulation in G2/M phase at 0.24 uM with red light radiation for 7 mins by PI staining based flow cytometry analysis (reference value: 4.73 %); type: functional
HeLa [35] = assay: Induction of morphological change in human HeLa cells assessed as reduction in adhesion at 0.25 uM preincubated for 24 hrs followed by 7 mins of LED light irradiation and measured upto 48 hrs by microscopic analysis; type: functional, cell-based; details: time min <=4327
[36] = Drug localization in lysosome of human HeLa cells at 1 uM incubated for 24 hrs by Green Fluorescent Protein based confocal laser scanning microscopy analysis; type: ADME, subcellular
HeLa [37] = assay: Induction of apoptosis in human HeLa cells at 0.24 uM preincubated for 24 hrs followed by 7 mins LED light irradiation and measured after 24 hrs by PI staining based flow cytometry analysis; type: functional; details: time 2887 min, 48.12 h
HeLa [38] = assay: Induction of apoptosis in human HeLa cells assessed as increase in DNA cleavage at 1 uM preincubated for 24 hrs followed by 7 mins LED light irradiation and measured after 24 hrs by PI staining based flow cytometry analysis; type: functional; details: time 2887 min, 48.12 h
Albumin = Albumin (Homo sapiens, UniProt P02768); assay: Binding affinity to human serum albumin assessed as binding constant by fluorescence based assay
Sequence of Albumin (P02768 whole entry): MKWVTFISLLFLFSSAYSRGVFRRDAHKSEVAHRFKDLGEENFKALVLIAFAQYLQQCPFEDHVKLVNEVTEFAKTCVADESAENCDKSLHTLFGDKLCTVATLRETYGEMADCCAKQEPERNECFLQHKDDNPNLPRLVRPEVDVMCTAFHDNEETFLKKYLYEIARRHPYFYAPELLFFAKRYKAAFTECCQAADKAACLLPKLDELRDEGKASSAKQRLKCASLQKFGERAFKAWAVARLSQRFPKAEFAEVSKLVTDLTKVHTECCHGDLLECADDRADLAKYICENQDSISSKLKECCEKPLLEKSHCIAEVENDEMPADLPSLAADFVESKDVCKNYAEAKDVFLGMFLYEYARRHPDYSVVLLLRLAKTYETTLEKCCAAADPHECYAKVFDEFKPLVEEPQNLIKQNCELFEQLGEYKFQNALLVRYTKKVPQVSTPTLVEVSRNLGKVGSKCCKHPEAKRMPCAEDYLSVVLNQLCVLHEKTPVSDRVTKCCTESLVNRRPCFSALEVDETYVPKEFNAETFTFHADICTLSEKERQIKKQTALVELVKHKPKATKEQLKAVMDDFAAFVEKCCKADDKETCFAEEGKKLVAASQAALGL

`CCN1/C(=C/C2=C(NCc3ccccn3)C(=C/C3=[N+](CC)c4ccc5ccccc5c4C3(C)C)/C2=O)C(C)(C)c2c1ccc1ccccc21.[I-]` gave an IC50 at 24 h [1] of 2130 nM, an IC50 at 24 h [2] of 263 nM and a selectivity ratio [3] of 8.1. The IC50 at 24 h [4] was 2020 nM, the IC50 [5] was 92 nM and the “Ratio IC50” value [6] was 21.9. It also gave a selectivity ratio [7] of 2.86, an IC50 at 24 h [8] of 2180 nM and an IC50 [9] of 240 nM. For the same molecule, the “Ratio IC50” value [10] was 9.1, the selectivity ratio [11] was 1.1 and the IC50 at 24 h [12] was 1610 nM. For the same molecule, the IC50 [13] was 165 nM, the “Ratio IC50” value [14] was 9.8 and the selectivity ratio [15] was 1.59. The IC50 at 24 h [16] was 2070 nM, the IC50 [17] was 87 nM and the “Ratio IC50” value [18] was 23.8. For the same molecule, the selectivity ratio [19] was 3.02, the Activity (HeLa [20]) was “Active” and the Activity (HeLa [21]) was “Active”. The Activity (HeLa [22]) was “Active”, the Activity (HeLa [23]) was “Active” and the Activity [24] was 24 a.u. For the same molecule, the Drug uptake [25] was “Active”, the Activity (HeLa [26]) was 68.34% and the Activity (HeLa [27]) was 26.68%. The Activity (HeLa [28]) was 4.98%, the Activity (HeLa [29]) was 73.97% and the Activity (HeLa [30]) was 22.04%. The Activity (HeLa [31]) was 4%, the Activity (HeLa [32]) was 67.14% and the Activity (HeLa [33]) was 16.91%. For the same molecule, the Activity (HeLa [34]) was 15.95%, the Activity (HeLa [35]) was “Active” and the Drug uptake [36] was “Not Active”. For the same molecule, the Activity (HeLa [37]) was 2%, the Activity (HeLa [38]) was 68% and the Kb (Albumin) was 6.93 10^5/M.
